What was measured:
[1] = Heat stability of latanoprost (biological activity); assay type: physicochemical; conditions: on heating
[2] = cited from earlier work

- Temperature above which latanoprost begins to lose biological activity [1]: about 56 °C
SMILES: CC(C)OC(=O)CCC/C=C\C[C@@H]1[C@@H](CC[C@@H](O)CCc2ccccc2)[C@H](O)C[C@@H]1O [latanoprost]
- Solubility in acetone, ethanol, ethyl acetate, isopropanol, methanol and octanol [2]: freely soluble
- Solubility in acetonitrile [2]: very soluble
- Solubility in water [2]: practically insoluble

Reference: patent US10463772B2, “Prostaglandin and prostamide drug delivery systems and intraocular therapeutic uses thereof” (ALLERGAN, INC., priority 2008, dated 2019)
